pIC50: −log10 of the molar value. Active and inactive are the calls of the source. The rule behind the calls is not given here.

Assay in all cases: potency against CXCR6 with APJ panel – cell-based, beta-arrestin, DiscoveRx, uHTS hits, dose response (AID 624129)
Test [1] deals with Apelin receptor (Homo sapiens) (UniProt P35414). The note with it: CXCR6 beta-arrestin (DiscoveRx) antagonist cell assay, APJ.
The target of test [2] is Beta-galactosidase (Escherichia coli) (UniProt Q8VNN2). The following applies: CXCR6 beta-arrestin (DiscoveRx) antagonist cell assay, b-galactosidase.
Test [3] deals with C-C chemokine receptor type 6 (Homo sapiens) (UniProt P51684). The note with it: CXCR6 beta-arrestin (DiscoveRx) antagonist cell assay.
Test [4] concerns the target C-X-C chemokine receptor type 6 (Homo sapiens) (UniProt O00574). The note with it: CXCR6 beta-arrestin (DiscoveRx) antagonist cell assay.
Where [5] appears, read: dose range 1, mean IC50 across replicates.
Where [6] appears, read: CCR6, dose range 1, mean IC50 across replicates.
[7] abbreviates: CXCR6, dose range 1, mean IC50 across replicates.

Beta-galactosidase (Escherichia coli), sequence (Q8VNN2 whole entry, looked up): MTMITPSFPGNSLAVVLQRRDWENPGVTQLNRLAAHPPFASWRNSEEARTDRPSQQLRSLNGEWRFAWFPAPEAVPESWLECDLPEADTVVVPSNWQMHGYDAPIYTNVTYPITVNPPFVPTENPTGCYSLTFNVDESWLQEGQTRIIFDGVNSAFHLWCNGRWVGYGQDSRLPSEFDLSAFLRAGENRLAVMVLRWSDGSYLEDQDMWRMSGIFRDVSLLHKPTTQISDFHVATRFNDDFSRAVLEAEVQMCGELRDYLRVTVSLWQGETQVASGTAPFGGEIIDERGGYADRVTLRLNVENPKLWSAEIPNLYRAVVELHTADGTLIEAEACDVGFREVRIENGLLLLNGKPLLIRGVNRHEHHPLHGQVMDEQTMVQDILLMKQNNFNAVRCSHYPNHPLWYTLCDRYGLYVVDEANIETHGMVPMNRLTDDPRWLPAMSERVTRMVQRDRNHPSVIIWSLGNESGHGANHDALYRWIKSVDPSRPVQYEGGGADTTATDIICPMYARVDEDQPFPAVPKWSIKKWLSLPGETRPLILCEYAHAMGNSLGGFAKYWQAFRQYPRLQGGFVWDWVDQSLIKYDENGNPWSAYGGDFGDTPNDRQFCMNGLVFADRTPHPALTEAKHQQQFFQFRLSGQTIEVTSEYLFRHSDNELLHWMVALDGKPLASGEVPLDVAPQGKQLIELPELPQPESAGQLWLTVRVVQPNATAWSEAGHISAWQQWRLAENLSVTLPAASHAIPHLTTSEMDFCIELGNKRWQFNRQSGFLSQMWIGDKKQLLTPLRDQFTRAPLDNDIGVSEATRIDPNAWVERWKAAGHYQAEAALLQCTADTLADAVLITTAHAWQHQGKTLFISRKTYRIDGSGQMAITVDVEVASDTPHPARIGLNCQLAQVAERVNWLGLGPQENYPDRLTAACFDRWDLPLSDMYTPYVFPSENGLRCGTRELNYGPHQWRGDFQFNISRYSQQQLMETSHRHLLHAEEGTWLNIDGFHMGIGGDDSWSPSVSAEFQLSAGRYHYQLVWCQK
C-X-C chemokine receptor type 6 (Homo sapiens), sequence (O00574 whole entry, looked up): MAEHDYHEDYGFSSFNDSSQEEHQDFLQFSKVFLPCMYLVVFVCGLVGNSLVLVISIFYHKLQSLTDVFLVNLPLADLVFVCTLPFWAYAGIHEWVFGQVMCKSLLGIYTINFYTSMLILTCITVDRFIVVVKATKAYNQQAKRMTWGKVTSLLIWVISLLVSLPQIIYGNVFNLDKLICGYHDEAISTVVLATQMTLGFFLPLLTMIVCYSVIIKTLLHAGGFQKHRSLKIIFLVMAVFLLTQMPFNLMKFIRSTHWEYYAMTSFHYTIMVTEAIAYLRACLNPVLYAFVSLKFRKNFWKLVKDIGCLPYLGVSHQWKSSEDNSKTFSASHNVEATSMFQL

As to `COc1ccc(CN2C(=O)C(Cc3ccccc3)Nc3ncnc(N4CCN(c5ccccc5)CC4)c32)cc1` (configuration not stated), the pIC50 (as a rule, −log10 of the IC50, conventionally taken in molar units) in test [1] (dose range 1) was 5.18; in test [1] (setting [5]), 5.03; in test [1] (run 2, dose range 1) it was 5.00; in test [1] (run 3, dose range 1), 4.95; in test [2] (dose range 1), 5.11; in test [2] (setting [5]), 5.11. Also, the pIC50 in test [3] (CCR6, dose range 1) was 5.34; in test [3] (setting [6]), 5.36; in test [3] (CCR6, run 2, dose range 1), 5.39; in test [4] (CXCR6, dose range 1), 5.08; in test [4] (setting [7]) it was 5.26; in test [4] (CXCR6, run 1, dose range 2), 5.50. The pIC50 in test [4] (CXCR6, run 2, dose range 1) was 5.34; in test [4] (CXCR6, run 2, dose range 2) it was 5.23.
Turning to `O=C(CSc1cccc2cccnc12)N1CCCC1`, the pIC50 in test [1] (dose range 1) was 5.34; in test [1] (setting [5]) it was 5.27; in test [1] (run 2, dose range 1), 5.21; in test [1] (run 3, dose range 1), 5.28; in test [2] (setting [5]), < 4.10; in test [3] (CCR6, dose range 1), 5.37. The negative-log IC50 (pIC50) is 5.28 in test [3] (setting [6]); 5.20 in test [3] (CCR6, run 2, dose range 1); 4.97 in test [4] (CXCR6, dose range 1); 5.21 in test [4] (setting [7]); 5.39 in test [4] (CXCR6, run 1, dose range 2); 5.20 in test [4] (CXCR6, run 2, dose range 1). In addition, in test [4] (CXCR6, run 2, dose range 2), the negative-log IC50 (pIC50) was 5.44. Also, the IC50 (in general, the concentration needed to halve the response being measured) in test [2] (dose range 1) was > 80 µM (inactive).
Turning to `O=Cc1s/c(=N\S(=O)(=O)c2ccccc2)n(CCCCl)c1Cl`, the pIC50 in test [1] (dose range 1) is 5.17; in test [1] (setting [5]) it was 5.20; in test [1] (run 2, dose range 1) it was 5.27; in test [1] (run 3, dose range 1), 5.18; in test [2] (dose range 1) it was 4.80; in test [2] (setting [5]) it was 4.80. For the same molecule, the pIC50 was 5.55 in test [3] (CCR6, dose range 1); 5.51 in test [3] (setting [6]); 5.46 in test [3] (CCR6, run 2, dose range 1); 5.31 in test [4] (CXCR6, dose range 1); 5.32 in test [4] (setting [7]); 5.29 in test [4] (CXCR6, run 1, dose range 2). In addition, the pIC50 in test [4] (CXCR6, run 2, dose range 1) was 5.31; in test [4] (CXCR6, run 2, dose range 2) it was 5.36.
For the molecule `C=C1C(=O)O[C@@H]2C[C@@H](C)[C@@H]3C=CC(=O)[C@@]3(C)[C@@H](OC(=O)CC(=O)O[C@H]3[C@@H]4C(=C)C(=O)O[C@@H]4C[C@@H](C)[C@@H]4C=CC(=O)[C@]43C)[C@H]12`, the pIC50 in test [1] (dose range 1) is 5.34; in test [1] (setting [5]), 5.30; in test [1] (run 2, dose range 1) it was 5.28; in test [1] (run 3, dose range 1), 5.30; in test [2] (setting [5]) it was < 4.10; in test [3] (CCR6, dose range 1), 5.51. Moreover, the pIC50 is 5.47 in test [3] (setting [6]); 5.44 in test [3] (CCR6, run 2, dose range 1); 5.33 in test [4] (CXCR6, dose range 1); 5.40 in test [4] (setting [7]); 5.42 in test [4] (CXCR6, run 1, dose range 2); 5.40 in test [4] (CXCR6, run 2, dose range 1). This molecule had a pIC50 in test [4] (CXCR6, run 2, dose range 2) of 5.48. In addition, the IC50 in test [2] (dose range 1) was > 80 µM (inactive).
Turning to `C=C1C(=O)C23C(O)C1CCC2C12CCCC(C)(COC(C)=O)C1C(O)C3(O)OC2` (configuration not stated), the pIC50 was 5.05 in test [1] (dose range 1); 5.06 in test [1] (setting [5]); 5.12 in test [1] (run 2, dose range 1); 5.02 in test [1] (run 3, dose range 1); < 4.10 in test [2] (setting [5]); 5.29 in test [3] (CCR6, dose range 1). Besides, the pIC50 in test [3] (setting [6]) is 5.25; in test [3] (CCR6, run 2, dose range 1), 5.22; in test [4] (CXCR6, dose range 1) it was 5.18; in test [4] (setting [7]), 5.20; in test [4] (CXCR6, run 1, dose range 2), 5.19; in test [4] (CXCR6, run 2, dose range 1), 5.20. Moreover, the pIC50 in test [4] (CXCR6, run 2, dose range 2) was 5.24. Further, in test [2] (dose range 1), the IC50 is > 80 µM (inactive).
`O=C(Nc1cccc(C(F)(F)F)c1)Oc1ccc(Cl)c2cccnc12`: the pIC50 in test [1] (dose range 1) is 6.46; in test [1] (setting [5]), 6.39; in test [1] (run 2, dose range 1), < 4.10; in test [1] (run 3, dose range 1) it was 6.33; in test [2] (setting [5]), < 4.10; in test [3] (CCR6, dose range 1) it was 6.31. The pIC50 in test [3] (setting [6]) is 6.27; in test [3] (CCR6, run 2, dose range 1), 6.23; in test [4] (CXCR6, dose range 1) it was 6.06; in test [4] (setting [7]), 6.15; in test [4] (CXCR6, run 2, dose range 1), 6.28. Moreover, the IC50 in test [2] (dose range 1) is > 80 µM (inactive). In addition, in test [4] (CXCR6, run 1, dose range 2, at 80 µM (top of the series)), the inhibition (in general, how much of the control response was suppressed) came to 53.2%.
As to `CN(c1ccccc1)S(=O)(=O)c1ccc(NC(=O)c2nc(S(C)(=O)=O)ncc2Cl)cc1`, the negative logarithm of the IC50 (pIC50) in test [1] (dose range 1) was 5.13; in test [1] (setting [5]), 5.11; in test [1] (run 2, dose range 1), 5.10; in test [1] (run 3, dose range 1), 5.10; in test [2] (setting [5]) it was < 4.10; in test [3] (CCR6, dose range 1), 5.20. Also, the pIC50 in test [3] (setting [6]) is 5.24; in test [3] (CCR6, run 2, dose range 1), 5.29; in test [4] (CXCR6, dose range 1), 5.22; in test [4] (setting [7]), 5.13; in test [4] (CXCR6, run 1, dose range 2), 5.09; in test [4] (CXCR6, run 2, dose range 1), 5.20. In test [4] (CXCR6, run 2, dose range 2), this molecule had a pIC50 of 5.04. Also, the IC50 in test [2] (dose range 1) was > 80 µM (inactive).
